Data from ChEMBL document CHEMBL4138123, “Design, synthesis and biological evaluation of novel pyrazolochalcones as potential modulators of PI3K/Akt/mTOR pathway and inducers of apoptosis in breast cancer cells” (Eur J Med Chem, 2017).

What was measured:
Type in all cases: functional
CCRF-CEM = test: Cytotoxicity against human CCRF-CEM cells assessed as growth inhibition after 48 hrs by sulforhodamine B assay
K562 = test: Cytotoxicity against human K562 cells assessed as growth inhibition after 48 hrs by sulforhodamine B assay; details: K562, 48 h
RPMI-8226 [1] = test: Cytotoxicity against human RPMI8226 cells assessed as growth inhibition after 48 hrs by sulforhodamine B assay; details: RPMI-8226, 48 h
SR = test: Cytotoxicity against human SR cells assessed as growth inhibition after 48 hrs by sulforhodamine B assay
NCI-H23 = test: Cytotoxicity against human NCI-H23 cells assessed as growth inhibition after 48 hrs by sulforhodamine B assay; details: NCI-H23, 48 h
NCI-H460 = test: Cytotoxicity against human NCI-H460 cells assessed as growth inhibition after 48 hrs by sulforhodamine B assay; details: NCI-H460, 48 h
HCT-116 [2] = test: Cytotoxicity against human HCT116 cells assessed as growth inhibition after 48 hrs by sulforhodamine B assay; details: HCT-116, 48 h
SF-268 = test: Cytotoxicity against human SF268 cells assessed as growth inhibition after 48 hrs by sulforhodamine B assay; details: SF-268, 48 h
M14 = test: Cytotoxicity against human M14 cells assessed as growth inhibition after 48 hrs by sulforhodamine B assay; details: M14, 48 h
SK-MEL-5 = test: Cytotoxicity against human SK-MEL-5 cells assessed as growth inhibition after 48 hrs by sulforhodamine B assay; details: SK-MEL-5, 48 h
OVCAR-5 [3] = test: Cytotoxicity against human OVCAR5 cells assessed as growth inhibition after 48 hrs by sulforhodamine B assay; details: OVCAR-5, 48 h
OVCAR-5 [4] = test: Cytotoxicity against human OVCAR5 cells assessed as cell growth at 0.01 uM after 48 hrs by sulforhodamine B assay relative to control; details: OVCAR-5, 48 h, read-out: Activity
HT-29 = test: Cytotoxicity against human HT-29 cells assessed as cell growth at 0.01 uM after 48 hrs by sulforhodamine B assay relative to control; details: HT-29, 48 h, read-out: Activity
COLO 205 [5] = test: Cytotoxicity against human COLO205 cells assessed as cell growth at 0.01 uM after 48 hrs by sulforhodamine B assay relative to control; details: COLO 205, 48 h, read-out: Activity
MOLT-4 = test: Cytotoxicity against human MOLT4 cells assessed as cell growth at 0.01 uM after 48 hrs by sulforhodamine B assay relative to control; details: MOLT-4, 48 h, read-out: Activity
T47D [6] = test: Cytotoxicity against human T47D cells assessed as cell growth at 0.01 uM after 48 hrs by sulforhodamine B assay relative to control; details: read-out: Activity
HCC 2998 = test: Cytotoxicity against human HCC2998 cells assessed as cell growth at 0.1 uM after 48 hrs by sulforhodamine B assay relative to control; details: HCC 2998, 48 h, read-out: Activity
UACC-257 = test: Cytotoxicity against human UACC257 cells assessed as cell growth at 0.1 uM after 48 hrs by sulforhodamine B assay relative to control; details: UACC-257, 48 h, read-out: Activity
OVCAR-3 = test: Cytotoxicity against human OVCAR3 cells assessed as cell growth at 0.1 uM after 48 hrs by sulforhodamine B assay relative to control; details: OVCAR-3, 48 h, read-out: Activity
786-0 = test: Cytotoxicity against human 786-0 cells assessed as cell growth at 0.1 uM after 48 hrs by sulforhodamine B assay relative to control; details: 786-0, 48 h, read-out: Activity
PC-3 = test: Cytotoxicity against human PC3 cells assessed as cell growth at 0.1 uM after 48 hrs by sulforhodamine B assay relative to control; details: PC-3, 48 h, read-out: Activity
DU-145 [7] = test: Cytotoxicity against human DU145 cells assessed as cell growth at 0.1 uM after 48 hrs by sulforhodamine B assay relative to control; details: DU-145, 48 h, read-out: Activity
T47D [8] = test: Cytotoxicity against human T47D cells assessed as cell growth at 0.1 uM after 48 hrs by sulforhodamine B assay relative to control; details: read-out: Activity
HL-60(TB) [9] = test: Cytotoxicity against human HL-60(TB) cells assessed as cell growth at 1 uM after 48 hrs by sulforhodamine B assay relative to control; details: HL-60, 48 h, read-out: Activity
RPMI-8226 [10] = test: Cytotoxicity against human RPMI8226 cells assessed as cell growth at 1 uM after 48 hrs by sulforhodamine B assay relative to control; details: RPMI-8226, 48 h, read-out: Activity
HOP-62 = test: Cytotoxicity against human HOP62 cells assessed as cell growth at 1 uM after 48 hrs by sulforhodamine B assay relative to control; details: HOP-62, 48 h, read-out: Activity
NCI-H322M = test: Cytotoxicity against human NCI-H322M cells assessed as cell growth at 1 uM after 48 hrs by sulforhodamine B assay relative to control; details: read-out: Activity
HCT-116 [11] = test: Cytotoxicity against human HCT116 cells assessed as cell growth at 1 uM after 48 hrs by sulforhodamine B assay relative to control; details: HCT-116, 48 h, read-out: Activity
SW-620 = test: Cytotoxicity against human SW620 cells assessed as cell growth at 1 uM after 48 hrs by sulforhodamine B assay relative to control; details: SW-620, 48 h, read-out: Activity
Hs-578T = test: Cytotoxicity against human Hs 578T cells assessed as cell growth at 1 uM after 48 hrs by sulforhodamine B assay relative to control; details: read-out: Activity
HL-60(TB) [12] = test: Cytotoxicity against human HL-60(TB) cells assessed as cell growth at 10 uM after 48 hrs by sulforhodamine B assay relative to control; details: HL-60, 48 h, read-out: Activity
RPMI-8226 [13] = test: Cytotoxicity against human RPMI8226 cells assessed as cell growth at 10 uM after 48 hrs by sulforhodamine B assay relative to control; details: RPMI-8226, 48 h, read-out: Activity
ACHN = test: Cytotoxicity against human ACHN cells assessed as cell growth at 10 uM after 48 hrs by sulforhodamine B assay relative to control; details: read-out: Activity
DU-145 [14] = test: Cytotoxicity against human DU145 cells assessed as cell growth at 10 uM after 48 hrs by sulforhodamine B assay relative to control; details: DU-145, 48 h, read-out: Activity
COLO 205 [15] = test: Cytotoxicity against human COLO205 cells assessed as cell growth at 100 uM after 48 hrs by sulforhodamine B assay relative to control; details: COLO 205, 48 h, read-out: Activity
OVCAR-4 = test: Cytotoxicity against human OVCAR4 cells assessed as cell growth at 100 uM after 48 hrs by sulforhodamine B assay relative to control; details: OVCAR-4, 48 h, read-out: Activity
[16] = read-out: LC50 (the source's name)

COc1cc2c(cc1OC)C(=O)/C(=C/c1cc(-c3ccc4c(c3)OCO4)n[nH]1)C2
GI50 (CCRF-CEM): 1.14 µM | LC50 (concentration killing 50% of cells) (CCRF-CEM): > 100 µM | TGI (CCRF-CEM): 3.61 µM | GI50 (K562): 1.59 µM | LC50 (concentration killing 50% of cells) (K562): > 100 µM | TGI (K562): > 100 µM | GI50 (RPMI-8226 [1]): 0.23 µM | LC50 (RPMI-8226 [1]): 5.52 µM | TGI (RPMI-8226 [1]): 0.623 µM | GI50 (SR): 0.62 µM | TGI (SR): 4.11 µM | CC50 (SR; [16]): > 100 µM | GI50 (NCI-H23): 1.87 µM | TGI (NCI-H23): 3.91 µM | CC50 (NCI-H23; [16]): 8.19 µM | GI50 (NCI-H460): 1.68 µM | LC50 (NCI-H460): 8.57 µM | TGI (NCI-H460): 3.79 µM | GI50 (HCT-116 [2]): 1.03 µM | LC50 (HCT-116 [2]): 6.31 µM | TGI (HCT-116 [2]): 2.54 µM | GI50 (SF-268): 1.63 µM | TGI (SF-268): 3.37 µM | CC50 (SF-268; [16]): 6.99 µM | GI50 (M14): 1.82 µM | LC50 (concentration killing 50% of cells) (M14): 6.34 µM | TGI (M14): 3.4 µM | GI50 (SK-MEL-5): 1.89 µM | LC50 (concentration killing 50% of cells) (SK-MEL-5): 5.61 µM | TGI (SK-MEL-5): 3.06 µM | GI50 (OVCAR-5 [3]): 1.56 µM | LC50 (OVCAR-5 [3]): 5.79 µM | TGI (OVCAR-5 [3]): 3 µM | growth at 0.01 µM (OVCAR-5 [4]): 102% | growth at 0.01 µM (HT-29): 98% | growth at 0.01 µM (COLO 205 [5]): 98% | growth at 0.01 µM (MOLT-4): 100% | growth at 0.01 µM (T47D [6]): 92% | growth at 0.1 µM (HCC 2998): 97% | growth at 0.1 µM (UACC-257): 94% | growth at 0.1 µM (OVCAR-3): 101% | growth at 0.1 µM (786-0): 98% | growth at 0.1 µM (PC-3): 89% | growth at 0.1 µM (DU-145 [7]): 101% | growth at 0.1 µM (T47D [8]): 95% | growth at 1 µM (HL-60(TB) [9]): 86% | growth at 1 µM (RPMI-8226 [10]): -24% | growth at 1 µM (HOP-62): 82% | growth at 1 µM (NCI-H322M): 82% | growth at 1 µM (HCT-116 [11]): 51% | growth at 1 µM (SW-620): 66% | growth at 1 µM (Hs-578T): 92% | growth at 10 µM (HL-60(TB) [12]): -29% | growth at 10 µM (RPMI-8226 [13]): -59% | growth at 10 µM (ACHN): -90% | growth at 10 µM (DU-145 [14]): -92% | growth at 100 µM (COLO 205 [15]): -88% | growth at 100 µM (OVCAR-4): -98%
